Experimental data as given in patent US20110039762A1, “TARGETED ANTIMICROBIAL MOIETIES” (C3 JIAN, INC., priority 2009, published 2011).
“Also recorded” adds a separate entry of the source. Bridge positions count the residues as written; N and C are the ends. Square brackets hold non-standard residues; d marks the D form. Ends that are not written are not given here. dOrn = NCCC[C@@H](N)C(=O)O; Orn = NCCC[C@H](N)C(=O)O

Experiments:
[1] = test system: S. pneumoniae; assay: Kill or inhibit growth/proliferation; morphology, biofilm and growth disruption (Tables 5, 6); assay type: cell-based, Streptococcus pneumoniae; design: key: A: Peptide aggregates; B: Less hyphal formation; Clumps; Diffuse clumps and small polyps; F: Diffuse growth; H: Thin; I: Growth inhibition; Microcolony formation; Rippled; Small polyps; Thick; W: Halo formation on top, microlonies on bottom; also: test concentration or dose not given here
[2] = test system: microorganisms (e.g., bacteria, yeasts, fungi); assay: Targeting peptide binding to target microorganisms (Table 3); settings: preferably 1x PBS; for Target(s) (microorganisms bound by the targeting peptide): peptide binding in aqueous buffers varied by peptide solubility; for Target(s): microorganism the targeting peptide binds, binding in aqueous buffers varied by peptide solubility

Substance | Organism, effect [1] | Target(s) (microorganisms bound by the targeting peptide) [2] | Organism, effect (morphology, biofilm and growth disruption) [1] | Target(s) [2]
PF-220 (VDPADDGTRHIRPEDGDPIEIDE; Peptide with targeting and/or antimicrobial activity) | S. pneumoniae (H) |  |  | 
PF-415 (MIDVTIGQKSKTGAFNASYSICFSGENFSF; Peptide with targeting and/or antimicrobial activity) | S. pneumoniae (D) |  |  | 
PF-419 (VVTGKVGSLPQIK; Peptide with targeting and/or antimicrobial activity) | S. pneumoniae (H) |  |  | 
PF-449 (MPTTKSKQKGWTNTKKASNTQ; Peptide with targeting and/or antimicrobial activity) | S. pneumoniae (H) |  |  | 
PF-455 (MARNDDDIKKIKGTLGQSPEVYGERKLPYT; Peptide with targeting and/or antimicrobial activity) | S. pneumoniae (A) |  |  | 
PF-468 (EDNKDKKDKKDK; Peptide with targeting and/or antimicrobial activity) | S. pneumoniae (H) |  |  | 
PF-485 (KNSMSRSIALID; Peptide with targeting and/or antimicrobial activity) | S. pneumoniae (A) |  |  | 
PF-644 (chain 1 TSGLIIGENGLNGL; chain 2 TSGLIIGENGLNGL; Peptide with targeting and/or antimicrobial activity) | S. pneumoniae (H) | Mycobacteria spp |  | 
PF-651 (chain 1 PRWPTGAGRHR; chain 2 PRWPTGAGRHR; Peptide with targeting and/or antimicrobial activity) |  | Mycobacteria spp | S. pneumoniae (H) | 
PF-652 (chain 1 FLAPARPDLQAQRQALAQ; chain 2 FLAPARPDLQAQRQALAQ; Peptide with targeting and/or antimicrobial activity) |  | Mycobacteria spp | S. pneumoniae (A) | 
PF-653 (chain 1 QSVHPLPAETPVADVI; chain 2 QSVHPLPAETPVADVI; Peptide with targeting and/or antimicrobial activity) |  | Mycobacteria spp | S. pneumoniae (H) | 
PF-660 (chain 1 TDPQATAAPRRRTSPR; chain 2 TDPQATAAPRRRTSPR; Peptide with targeting and/or antimicrobial activity) |  | Mycobacteria spp | S. pneumoniae (H) | 
PF-662 (chain 1 GKQSRAHGPVASRREFRRKSG; chain 2 GKQSRAHGPVASRREFRRKSG; Peptide with targeting and/or antimicrobial activity) |  | Mycobacteria spp | S. pneumoniae (A) | 
PF-663 (chain 1 ATLIPRKA; chain 2 ATLIPRKA; Peptide with targeting and/or antimicrobial activity) |  | Mycobacteria spp | S. pneumoniae (A) | 
PF-665 (chain 1 VLRVATAVGEVPTGL; chain 2 VLRVATAVGEVPTGL; Peptide with targeting and/or antimicrobial activity) |  | Mycobacteria spp | S. pneumoniae (H) | 
PF-666 (chain 1 PNRRSRPR; chain 2 PNRRSRPR; Peptide with targeting and/or antimicrobial activity) |  | Mycobacteria spp | S. pneumoniae (A) | 
PF-682 (chain 1 RRGKSEQGLSRR; chain 2 RRGKSEQGLSRR; Peptide with targeting and/or antimicrobial activity) |  | Mycobacteria spp | S. pneumoniae (A) | 
PF-687 (chain 1 AKRVLSLAVAPHRRQPVQGT; chain 2 AKRVLSLAVAPHRRQPVQGT; Peptide with targeting and/or antimicrobial activity) |  | Mycobacteria spp | S. pneumoniae (A) | 
PF-688 (chain 1 ARNHAVIPAG; chain 2 ARNHAVIPAG; Peptide with targeting and/or antimicrobial activity) |  | Mycobacteria spp | S. pneumoniae (A) | 
PF-691 (chain 1 HRTVEFGVLGTYLVSGGSL; chain 2 HRTVEFGVLGTYLVSGGSL; Peptide with targeting and/or antimicrobial activity) |  | Mycobacteria spp | S. pneumoniae (R) | 
PF-693 (chain 1 PDPAR; chain 2 PDPAR; Peptide with targeting and/or antimicrobial activity) |  | Mycobacteria spp | S. pneumoniae (A) | 
PF-696 (chain 1 IRSGISAAYARPLR; chain 2 IRSGISAAYARPLR; Peptide with targeting and/or antimicrobial activity) |  | Mycobacteria spp | S. pneumoniae (H) | 

Substance | Organism, effect [1] | Target(s) (microorganisms bound by the targeting peptide) [2] | Organism, effect (morphology, biofilm and growth disruption) [1] | Target(s) [2]
PF-699 (chain 1 GRAGVKCRRPTGR; chain 2 GRAGVKCRRPTGR; Peptide with targeting and/or antimicrobial activity) |  | Mycobacteria spp | S. pneumoniae (A) | 
PF-700 (chain 1 LNWPFTGR; chain 2 LNWPFTGR; Peptide with targeting and/or antimicrobial activity) |  | Mycobacteria spp | S. pneumoniae (C) | 
PF-702 (chain 1 LSGRLAGRR; chain 2 LSGRLAGRR; Peptide with targeting and/or antimicrobial activity) |  | Mycobacteria spp | S. pneumoniae (H) | 
PF-C273 (KNMLKRRMKQKRLFDEEDRLRVLSKYTKSYY; Peptide with targeting and/or antimicrobial activity) |  | A. naeslundii; also recorded: P. gingivalis; also recorded: S. mutans; also recorded: T. denticola |  | 
PF-C285 (FTIIELKKQKIKHGENNKKTAHPLNEPFCARA; Peptide with targeting and/or antimicrobial activity) |  | A. naeslundii; also recorded: F. nucleatum; also recorded: P. gingivalis; also recorded: S. mutans; also recorded: T. denticola |  | 
PF-S004 (VLLNIFRTLLEFFSPSNAPGAEDVPLPDTQA; Peptide with targeting and/or antimicrobial activity) |  | S. epidermidis and MRSA and C. jeikeium |  | 
PF-S007 (VVAGVVLLTALAVGSKRKEKKQIKEIQRLLAATR; Peptide with targeting and/or antimicrobial activity) |  | S. epidermidis and MRSA |  | 
PF-S015 (IENLERGARRPP; Peptide with targeting and/or antimicrobial activity) |  | S. epidermidis and MRSA and C. jeikeium |  | 
PF-S018 (GMPQIPRLRI; Peptide with targeting and/or antimicrobial activity) |  | S. epidermidis and M. luteus and C. albicans and MRSA and E. faecalis and C. jeikeium and C. jejuni |  | 
PF-S023 (MAEDERRALKRRTNRGRTRTRKRITV; Peptide with targeting and/or antimicrobial activity) |  | S. epidermidis and MRSA |  | 
PF-S024 (SKRGRKRKDRRKKKANHGKRPNS; Peptide with targeting and/or antimicrobial activity) |  |  |  | Corynebacteria
PF-S026 (TELKYNGEEYLLLTQRDILAVIEK; Peptide with targeting and/or antimicrobial activity) |  | S. epidermidis and MRSA and C. jeikeium |  | 
PF-S029 (TSDTQSQSPWLFDNADIVNIYPVQLMHSSDND; Peptide with targeting and/or antimicrobial activity) |  | M. luteus; also recorded: P. mirabilis; also recorded: E. coli; also recorded: C. albicans; also recorded: C. jeikeium; also recorded: C. jejuni |  | 
Py Pf 12 ([dS]KG[Orn][dS]SGK[dOrn]ES; lactam 8-C; not fully specified) |  |  |  | P. fluorescens
TT-305 (ARNALNMRDVPVDAAIIGIIDGMDEE; Peptide with targeting and/or antimicrobial activity) |  |  |  | F. nucleatum
TT-306 (KILNEAEGKLLKVIEKNGEIDIEEI; Peptide with targeting and/or antimicrobial activity) |  |  |  | F. nucleatum
TT-307 (NGDKKAKEELDKWDEVIKELNIQF; Peptide with targeting and/or antimicrobial activity) |  |  |  | F. nucleatum
TT-308 (GLVIIPNLIALIILFSQVRQQTKDYFSNPKLSSR; Peptide with targeting and/or antimicrobial activity) |  |  |  | F. nucleatum
TT-309 (EPLPLTKYDKKDTEMKKVFKEILAGKVGYEKEEE; Peptide with targeting and/or antimicrobial activity) |  |  |  | F. nucleatum
TT-310 (TKLKKNNKLLSAKKENTLHTKDK; Peptide with targeting and/or antimicrobial activity) |  |  |  | F. nucleatum
TT-311 (AIFDAMHNL; Peptide with targeting and/or antimicrobial activity) |  |  |  | S. mutans; also recorded: S. sobrinus
